According to US20020137141A1, “Short peptides from the 'A-region' of protein kinases which selectively modulate protein kinase activity” (Children's Medical Center Corporation, priority 2000, published 2002):
Where no end group is shown, it is not given here.

Assays:
[1] = test system: IRK substrates; test: Western blot of FIG. 10 as worded in the figure legend; assay type: cell-based, rat; conditions: FIG. 10 legend
Protocol: (§1) All experiments were carried out with H4 cells (Rat hepatoma cell line).Cells were pre-incubated with the compound K094A107 comprising an IRK-derived peptide (SEQ ID NO: 102)(10mM) or the corresponding controls for 3 hours ( one control was control -no treatment vehicle only, the second control was an irrelevant peptide derived from a non-A-region of a kinase), and with human recombinant insulin (100 nM), for 5 minutes. The cells were then lysed and cell lysates were subjected to Western Blot analysis followed by detection with ECL.
(§2) A similar experiment was conducted with the difference being that the substrates tested were the substrates of the kinase associated signal transduction that are more downstream in the pathway: Erk1, and p38-MAP.

[2] = test system: adipose cells; test: Glucose uptake (3H-deoxy glucose) in fresh rat adipocytes; assay type: cell-based; conditions: for glucose uptake: 10 μM compound, fresh adipocytes, without insulin, vs control (vehicle)
Protocol: To 3 ml of KRBH buffer with 10 mg collagenase, 3g epididymal fat pad (from 2-3 male rats lightly ether anesthesised and then decapitated) was introduced. The fat was cut up with scissors. The pieces of fat were swirled and shaken in the collagenase solution in a 37° C. water bath, set at 100-150 repetitions/minute, for approximately 1 hour with swirling every 15 minutes while digesting and every 5 minutes towards the end. About 6 ml of buffer was then added to the vial. The content of the vial was gently squeezed through a 250 μ nylon mesh into a 50 ml plastic tube. The residual fat tissue was washed (the total volume for each wash was 15 ml): the tube was centrifuged whereby the adipose cells floated at the top of the liquid. The buffer was removed using a syringe with polyethylene capillary. Buffer was added to get 15 ml and clumps of adipose cells were broken up by gently mixing up and down. This procedure was repeated for a total of 4 centrifugations: 3 centrifugations at 1000 rpm with the last centrifugation at 2000 rpm. At this point, the buffer was removed. Fresh buffer was added to the cell suspension to form a cytocrit of 5-10%. The cells were rolled at 10 rpm at 37° C. for 1 hour.
50 μl 0.1% BSA in PBS was placed with compounds comprising IRK-derived peptides (final concentrations: 0.1-50 μM) or the peptide-vehicle in each 2 ml plastic tube in duplicates. 950 μl aliquots of the cell suspension were added to the tubes. After incubation for 1 hour at 37° C. in a roller (10 rpm), 200 ul of insulin was added to certain tubes to get final concentrations of 2.5-1000 uU/ml and than 200 μl of KRBH buffer containing 3H—Deoxy Glucose (approx. 1200 dpm/μl) was added to each tube. After 30 minutes incubation with the 3H-DOG and insulin at 37° C., 200 μl aliquots were transferred to microcentrifuge tubes containing 200 μl Dinonyl phthalate in duplicates. Cells were rapidly separated from the aqueous buffer by centrifugation at 10,000 g for 60 sec. The cells were isolated in the top layer of the dinonyl phthalate phase. The upper part of the tube (which contains the cells) was cut and transferred to scintillation tube. 4 ml of scintillation liquid was added.
Cell associated radioactivity was counted in a liquid scintillation beta counter.
Glucose-uptake was measured in fresh adipocytes, incubated with or without insulin (10 μ/ml) as described above, in the absence (vehicle) or the presence of 10 μM of a compound K094A107 (“107”) SEQ ID NO: 102; or K094A205 (“205”) (SEQ ID NO: 123), which was kept in a reducing environment (5 to 25 μM DTT) As a comparison the glucose uptake with insulin alone was determined.

[3] = test system: Erk1; test: Western blot, phosphorylation of downstream substrate Erk1; assay type: cell-based, rat; conditions: dose dependent, compared with insulin, FIG. 10
Protocol: as §1
(§3) The membrane was incubated overnight with a primary polyclonal Anti-PhosphoPKB (phospho-serine 473 PKB)Ab, or with an antibody for IRK and then, after 3 washes with TBST, with secondary HRP antibody was added for 1 hour. In the second gel the membrane was incubated overnight with a primary monoclonal PhosphoTyrosine Kinase (PY99) Ab that labels phosphorylated tyrosine, and then after 3 washes with TBST, a secondary antibody was added for 1 hour.
as §2

[4] = test system: IRK; test: Western blot, phosphorylation of IRK in H4 cells; assay type: cell-based, rat; set-up: dose or concentration left out as unconfirmed; conditions: pre-incubated 3 hours with compound, FIG. 9
Protocol: as §1, §3

[5] = test system: p38-MAP; test: Western blot, phosphorylation of downstream substrate p38-MAP; assay type: cell-based, rat; conditions: dose dependent, compared with insulin, FIG. 10
Protocol: as §1, §3, §2

[6] = test system: PKB; test: Western blot, phosphorylation of PKB in H4 cells; assay type: cell-based, rat; set-up: dose or concentration left out as unconfirmed; conditions: pre-incubated 3 hours with compound, phospho-serine 473, FIG. 9
Protocol: as §1, §3

[7] = test system: male Sabra rats; test: Blood glucose in streptozotocin-induced diabetic rats; assay type: in vivo, rat; conditions: 10 mg/animal I.P., insulin 0.125 units/animal one hour later
Protocol: Diabetes was induced in male Sabra rats (150-200 gr) by I.P. injection of streptozotocin (Sigma, S0130) 60 mg/Kg dissolved in ph 4.5 saline (Biochemical and biophysical research comunications 197(3): 1549-1555 (1993)), which is known to destroy insulin-secreting pancreatic cells. After 2-7 days the rats were all diabetic, as determined by blood glucose level above 200 mg/dl which was measured with glucometer.
12 rats were divided into 3 groups, with homogenic blood glucose level, each consisting of 4 animals
Group I was administered with K094A107 (SEQ ID NO: 102) 10 mg/animal (I.P.) followed by administration of insulin 0.125 units/animal (low concentration of insulin that nearly doesn't give any significant decrease in blood glucose level) one hour later.
Group II was administered with K094A205 (A-region in SEQ ID NO: 123) 10 mg/animal (I.P.) followed by insulin 0.125 units/animal one hour later.
Group III served as control and was administered I.P. with vehicle (NAC/DMSO-DIDV) followed by insulin 0.125 units/animal one hour later.

[8] = test system: neural crest cells; test: Emigration of neural crest cells from explanted neural primordia; assay type: cell-based, quail
Source text: The procedure for explants of neural primordia is described in greater detail in Sela-Donefeld and Kalcheim (Development, 125(21): 4749-4762 (1999)), the teaching of which was incorporated herein by reference.
The trunk region of 16 somite-old quail embryos was separately sectioned at the level of the segmental plate plus the last 2 epithelial somite pairs. Neural primordia consisting of the neural tube and premigratory neural crest cells were isolated from adjacent tissues with 25% pancreatin in PBS, transferred to PBS supplemented with 5% newborn calf serum to stop enzymatic activity and washed in serum-free culture medium prior to explanation. The neural primordia were then explanted onto multi-well chamber slides that were pre-coated with fibronectin (50 μg/ml) for 1 hour. The neural primordia were cultured in 50 μl of either serum-free CHO—S-SFMII medium (GibcoBRL, USA) or condition medium of noggin producing-CHO cells, in the absence or presence of the tested compound, in a final concentration of 5 μM and incubated in a humid chamber for 24 hours. At the end of the incubation, the primordia were gently washed with PBS and fixed with Bouin's fluid, washed 3 times with PBS, dried and covered.

K094A107: compound comprising an IRK A-region derived peptide, N-myristylated and C-amidated (GGFTCHHVVRL-NH2; not fully specified (N-terminus))
phosphorylation of IRK substrates [1]: decrease of phosphorylation of IRK substrates, in a dose dependent manner
glucose uptake in combination with insulin ([2]; 10 μM compound in the presence of 10 μU/ml insulin): synergistic
glucose uptake [2]: increase glucose uptake levels beyond the level of control glucose uptake
glucose uptake, dose dependence ([2]; different concentrations of the compound (FIG. 6B)): induce glucose uptake in a dose-dependent manner
phosphorylation of ERK1 [3]: increase the phosphorylation of ERK1 and p38-MAP in a dose dependent manner
phosphorylation of IRK [4]: able to increase phosphorylation
phosphorylation of p38-MAP [5]: increase the phosphorylation of ERK1 and p38-MAP in a dose dependent manner
phosphorylation of PKB [6]: able to increase phosphorylation

K094A205: compound comprising IRK A-region derived sequence, kept in a reducing environment (GGFTCHHVVRL; IRK)
glucose uptake [2]: increase glucose uptake levels beyond the level of control glucose uptake
time at which effect of a single administration on blood glucose was still notable [7]: ≥ 24 h
glucose blood levels ([7]; measured for 24 hours, vs vehicle plus insulin): marked reduction

K098A100: compound comprising ALK-3-derived A-region peptide (GLMRHENILGF; Alk3)
neural crest migration in the presence of noggin ([8]; 5 μM compound, 24 hours, condition medium of noggin producing-CHO cells): overcomes this inhibition and induces neural crest migration
number of migrating neural crest cells ([8]; 5 μM compound, 24 hours, serum-free medium, absence of noggin): the number of migrating cells is higher

B1: Noggin: specific inhibitor of BMP-4; condition medium of noggin producing-CHO cells (protein, UniProt Q13253 28-232, looked up)
Noggin: QHYLHIRPAPSDNLPLVDLIEHPDPIFDPKEKDLNETLLRSLLGGHYDPGFMATSPPEDRPGGGGGAAGGAEDLAELDQLLRQRPSGAMPSEIKGLEFSEGLAQGKKQRLSKKLRRKLQMWLWSQTFCPVLYAWNDLGSRFWPRYVKVGSCFSKRSCSVPEGMVCKPSKSVHLTVLRWRCQRRGGQRCGWIPIQYPIISECKCSC
modifications: CHO conditioned medium
notes: condition medium of noggin producing-CHO cells
neural crest migration ([8]; noggin alone, no compound): blocks the neural crest migration
